Measurements from publication PMC5218480 (PLoS ONE, 2017).

Test system: MV-4-11 cells
Experiment: Gene expression microarray analysis (Affymetrix PrimeView) and GSEA
Type: cell-based, human
Design: RFU PODN (11730768_x_at) / Fold change /veh PODN (11730768_x_at) / RFU LINC00158 (11744669_a_at) / Fold change /veh LINC00158 (11744669_a_at) / RFU DUSP10 (11751237_a_at) / Fold change /veh DUSP10 (11751237_a_at) / RFU ID3 (11757404_x_at) / Fold change /veh ID3 (11757404_x_at) / RFU PLEKHG5 (11737974_s_at) / Fold change /veh PLEKHG5 (11737974_s_at) / RFU LRRC4B (11730491_at) / Fold change /veh LRRC4B (11730491_at) / RFU GIMAP4 (11747438_a_at) / Fold change /veh GIMAP4 (11747438_a_at) / RFU KRT8 (11758183_x_at) / Fold change /veh KRT8 (11758183_x_at) / RFU CNN1 (11734310_a_at) / Fold change /veh CNN1 (11734310_a_at) / RFU VPS37D (11726825_at) / Fold change /veh VPS37D (11726825_at) / RFU C10orf10 (11716522_x_at) / Fold change /veh C10orf10 (11716522_x_at) / RFU KIR2DL2 /// KIR2DL4 /// KIR2DL5A /// KIR2DL5B /// KIR2DS1 /// KIR2DS2 /// KIR2DS3 /// KIR2DS4 /// KIR3DL3 /// KIR3DL3 /// KIR3DS1 (11738374_at) / Fold change /veh KIR2DL2 /// KIR2DL4 /// KIR2DL5A /// KIR2DL5B /// KIR2DS1 /// KIR2DS2 /// KIR2DS3 /// KIR2DS4 /// KIR3DL3 /// KIR3DL3 /// KIR3DS1 (11738374_at) / RFU C1QL1 (11718748_at) / Fold change /veh C1QL1 (11718748_at) / RFU TMPRSS4 (11747572_a_at) / Fold change /veh TMPRSS4 (11747572_a_at) / RFU HAMP (11756126_x_at) / Fold change /veh HAMP (11756126_x_at) / RFU RNFT2 (11725882_a_at) / Fold change /veh RNFT2 (11725882_a_at) / RFU NR4A2 (11747474_a_at) / Fold change /veh NR4A2 (11747474_a_at) / RFU ABCC12 (11746883_a_at) / Fold change /veh ABCC12 (11746883_a_at) / RFU TMEM136 (11760407_x_at) / Fold change /veh TMEM136 (11760407_x_at) / RFU CLDN22 /// WWC2 (11732394_at) / Fold change /veh CLDN22 /// WWC2 (11732394_at) / RFU HLA-DPB1 (11760878_x_at) / Fold change /veh HLA-DPB1 (11760878_x_at) / RFU SPINT1 (11716480_a_at) / Fold change /veh SPINT1 (11716480_a_at) / RFU GAP43 (11754022_s_at) / Fold change /veh GAP43 (11754022_s_at) / RFU A4GNT (11735810_at) / Fold change /veh A4GNT (11735810_at) / RFU PRB3 (11715151_x_at) / Fold change /veh PRB3 (11715151_x_at) / RFU TUBB4B (11761932_at) / Fold change /veh TUBB4B (11761932_at) / RFU CAPN14 (11732068_a_at) / Fold change /veh CAPN14 (11732068_a_at) / RFU TMCC2 (11721928_a_at) / Fold change /veh TMCC2 (11721928_a_at) / RFU IRGQ (11745062_a_at) / Fold change /veh IRGQ (11745062_a_at) / RFU FAM174B (11720279_a_at) / Fold change /veh FAM174B (11720279_a_at) / RFU TMPRSS4 (11748680_a_at) / Fold change /veh TMPRSS4 (11748680_a_at) / RFU FAM212B (11763350_a_at) / Fold change /veh FAM212B (11763350_a_at) / RFU PLEKHG5 (11743358_a_at) / Fold change /veh PLEKHG5 (11743358_a_at) / RFU ZSCAN30 (11745921_a_at) / Fold change /veh ZSCAN30 (11745921_a_at) / RFU CMKLR1 (11741424_a_at) / Fold change /veh CMKLR1 (11741424_a_at) / RFU LOC101060620 /// MAPK8IP1 (11723275_at) / Fold change /veh LOC101060620 /// MAPK8IP1 (11723275_at) / RFU SPTSSB (11747773_x_at) / Fold change /veh SPTSSB (11747773_x_at) / RFU PRSS12 (11739890_at) / Fold change /veh PRSS12 (11739890_at) / RFU BIN1 (11741810_x_at) / Fold change /veh BIN1 (11741810_x_at) / RFU WNT11 (11732464_a_at) / Fold change /veh WNT11 (11732464_a_at) / RFU C10orf10 (11716521_a_at) / Fold change /veh C10orf10 (11716521_a_at) / RFU C5orf56 (11738089_at) / Fold change /veh C5orf56 (11738089_at) / RFU CYB561 (11721691_x_at) / Fold change /veh CYB561 (11721691_x_at) / RFU ANKRD19P (11752326_a_at) / Fold change /veh ANKRD19P (11752326_a_at) / RFU OR2T12 /// OR2T33 /// OR2T8 (11738714_s_at) / Fold change /veh OR2T12 /// OR2T33 /// OR2T8 (11738714_s_at) / RFU VCAN (11748164_a_at) / Fold change /veh VCAN (11748164_a_at) / RFU JSRP1 (11732532_at) / Fold change /veh JSRP1 (11732532_at) / RFU KRTAP10-11 (11738290_x_at) / Fold change /veh KRTAP10-11 (11738290_x_at) / RFU MYO3A (11730013_a_at) / Fold change /veh MYO3A (11730013_a_at) / RFU EBF3 (11725865_a_at) / Fold change /veh EBF3 (11725865_a_at) / RFU CAMK2N1 (11719241_x_at) / Fold change /veh CAMK2N1 (11719241_x_at) / RFU C5orf56 (11738088_a_at) / Fold change /veh C5orf56 (11738088_a_at) / RFU OLFML3 (11715873_a_at) / Fold change /veh OLFML3 (11715873_a_at) / RFU LOC100653217 /// NTM (11731650_a_at) / Fold change /veh LOC100653217 /// NTM (11731650_a_at) / RFU MAPK11 (11762145_a_at) / Fold change /veh MAPK11 (11762145_a_at) / RFU FIZ1 (11724087_x_at) / Fold change /veh FIZ1 (11724087_x_at) / RFU OASL (11726364_x_at) / Fold change /veh OASL (11726364_x_at) / RFU SOX15 (11748057_x_at) / Fold change /veh SOX15 (11748057_x_at) / RFU CD79A (11719716_a_at) / Fold change /veh CD79A (11719716_a_at) / RFU HIST1H1D (11736915_at) / Fold change /veh HIST1H1D (11736915_at) / RFU CASKIN2 (11723855_a_at) / Fold change /veh CASKIN2 (11723855_a_at) / RFU LOC730098 (11760151_x_at) / Fold change /veh LOC730098 (11760151_x_at) / RFU OR4N2 (11742367_at) / Fold change /veh OR4N2 (11742367_at) / RFU PRRT2 (11749266_a_at) / Fold change /veh PRRT2 (11749266_a_at) / RFU SNX32 (11753110_a_at) / Fold change /veh SNX32 (11753110_a_at) / RFU CDHR5 (11726645_a_at) / Fold change /veh CDHR5 (11726645_a_at) / RFU RCAN1 (11760418_a_at) / Fold change /veh RCAN1 (11760418_a_at) / RFU FAM167A (11723789_a_at) / Fold change /veh FAM167A (11723789_a_at) / RFU FAM26E (11764081_at) / Fold change /veh FAM26E (11764081_at) / RFU ISYNA1 (11749810_s_at) / Fold change /veh ISYNA1 (11749810_s_at) / RFU ACY1 (11761880_at) / Fold change /veh ACY1 (11761880_at) / RFU 11764098_at / Fold change /veh 11764098_at / RFU SAMD14 (11745864_x_at) / Fold change /veh SAMD14 (11745864_x_at) / RFU NPB (11741838_a_at) / Fold change /veh NPB (11741838_a_at) / RFU TMPRSS6 (11731388_a_at) / Fold change /veh TMPRSS6 (11731388_a_at) / RFU KRTAP10-2 (11738614_at) / Fold change /veh KRTAP10-2 (11738614_at) / RFU ARHGAP8 /// PRR5-ARHGAP8 (11727945_x_at) / Fold change /veh ARHGAP8 /// PRR5-ARHGAP8 (11727945_x_at) / RFU KRTAP5-7 /// NADSYN1 (11734609_at) / Fold change /veh KRTAP5-7 /// NADSYN1 (11734609_at) / RFU RASL12 (11751679_a_at) / Fold change /veh RASL12 (11751679_a_at) / RFU CDKN2B (11736163_a_at) / Fold change /veh CDKN2B (11736163_a_at) / RFU PRF1 (11729649_at) / Fold change /veh PRF1 (11729649_at) / RFU, ZNF638 /// ZNF638-IT1 / Fold change vs veh, ZNF638 /// ZNF638-IT1 / RFU, PANK3 / Fold change vs veh, PANK3 / RFU, SH3YL1 / Fold change vs veh, SH3YL1 / RFU, ZEB2 / Fold change vs veh, ZEB2 / RFU, NRIP1 / Fold change vs veh, NRIP1 / RFU, PTTG1IP / Fold change vs veh, PTTG1IP / RFU, CAPN2 / Fold change vs veh, CAPN2 / RFU, MED14 / Fold change vs veh, MED14 / RFU, SNORA58 / Fold change vs veh, SNORA58 / RFU, C1orf63 / Fold change vs veh, C1orf63 / RFU, LRRFIP1 / Fold change vs veh, LRRFIP1 / RFU, NDUFAF7 / Fold change vs veh, NDUFAF7 / RFU, SLC12A2 / Fold change vs veh, SLC12A2 / RFU, IBTK / Fold change vs veh, IBTK / RFU, ESF1 / Fold change vs veh, ESF1 / Fold change vs veh, TMEM50B / RFU, TAOK1 / Fold change vs veh, TAOK1 / RFU, ACBD3 / Fold change vs veh, ACBD3 / RFU, TMA16 / Fold change vs veh, TMA16 / RFU, RWDD3 / Fold change vs veh, RWDD3 / RFU, BCAT1 / Fold change vs veh, BCAT1 / RFU, EDEM3 / Fold change vs veh, EDEM3 / RFU, TMEM33 / Fold change vs veh, TMEM33 / RFU, WDR75 / Fold change vs veh, WDR75 / RFU, AHCTF1 / Fold change vs veh, AHCTF1 / RFU, TFRC / Fold change vs veh, TFRC / RFU, ZDHHC17 / Fold change vs veh, ZDHHC17 / RFU, NOM1 / Fold change vs veh, NOM1 / RFU, ARL8B / Fold change vs veh, ARL8B / RFU, ZBTB11 / Fold change vs veh, ZBTB11 / RFU, TAMM41 / Fold change vs veh, TAMM41 / RFU, KIAA1704 /// LOC100996395 / Fold change vs veh, KIAA1704 /// LOC100996395 / RFU, ING1 / Fold change vs veh, ING1 / RFU, TRMT61B / Fold change vs veh, TRMT61B / RFU, FUBP3 / Fold change vs veh, FUBP3 / RFU, TP53 / Fold change vs veh, TP53 / RFU, TNKS2 / Fold change vs veh, TNKS2 / RFU, ZFP14 / Fold change vs veh, ZFP14 / RFU, ACTR2 / Fold change vs veh, ACTR2 / RFU, PPP3R1 / Fold change vs veh, PPP3R1 / RFU, PIK3R1 / Fold change vs veh, PIK3R1 / RFU, HNRNPA1 / Fold change vs veh, HNRNPA1 / RFU, RNF170 / Fold change vs veh, RNF170 / RFU, ZNF28 / Fold change vs veh, ZNF28 / RFU, RNGTT / Fold change vs veh, RNGTT / RFU, OGT / Fold change vs veh, OGT / RFU, BRD1 / Fold change vs veh, BRD1 / RFU, MARS / Fold change vs veh, MARS / RFU, ZNF655 / Fold change vs veh, ZNF655 / RFU, FAHD1 / Fold change vs veh, FAHD1 / RFU, BDP1 / Fold change vs veh, BDP1 / RFU, LRRCC1 / Fold change vs veh, LRRCC1 / RFU, ARID1A / Fold change vs veh, ARID1A / RFU, ZNF146 / Fold change vs veh, ZNF146 / RFU, ZNF330 / Fold change vs veh, ZNF330 / RFU, GPN3 / Fold change vs veh, GPN3 / RFU, C9orf123 / Fold change vs veh, C9orf123 / RFU, N4BP2L2 / Fold change vs veh, N4BP2L2 / RFU, ARFIP1 / Fold change vs veh, ARFIP1 / RFU, FAM179B / Fold change vs veh, FAM179B / RFU, BCL10 / Fold change vs veh, BCL10 / RFU, UHRF1BP1L / Fold change vs veh, UHRF1BP1L / RFU, BET1 / Fold change vs veh, BET1 / RFU, CNOT2 / Fold change vs veh, CNOT2 / RFU, ZNF268 / Fold change vs veh, ZNF268 / Fold change vs veh, ZNF507 / RFU, DGCR2 / Fold change vs veh, DGCR2 / RFU, WDSUB1 / Fold change vs veh, WDSUB1 / Fold change vs veh, HSP90B1 /// MIR3652 / RFU, ADSS / Fold change vs veh, ADSS / RFU, GK / Fold change vs veh, GK / RFU, ZNF148 / Fold change vs veh, ZNF148 / RFU, TAF9 / Fold change vs veh, TAF9 / RFU, SLC1A5 / Fold change vs veh, SLC1A5 / RFU, SLMO2 / Fold change vs veh, SLMO2 / RFU, ABCC4 / Fold change vs veh, ABCC4 / RFU, LOC101060439 /// RAP1B / Fold change vs veh, LOC101060439 /// RAP1B / RFU, RFX7 / Fold change vs veh, RFX7 / RFU, GTPBP10 / Fold change vs veh, GTPBP10 / RFU, CNEP1R1 / Fold change vs veh, CNEP1R1 / RFU, BIVM-ERCC5 /// ERCC5 / Fold change vs veh, BIVM-ERCC5 /// ERCC5 / RFU, ILF3 / Fold change vs veh, ILF3 / RFU 11762660_at / Fold change /veh 11762660_at / RFU VCAN (11757783_s_at) / Fold change /veh VCAN (11757783_s_at) / RFU DDX43 (11728927_at) / Fold change /veh DDX43 (11728927_at) / RFU KRT8 (11758188_x_at) / Fold change /veh KRT8 (11758188_x_at) / RFU NKD1 (11759106_at) / Fold change /veh NKD1 (11759106_at) / RFU SRD5A1 (11742802_a_at) / Fold change /veh SRD5A1 (11742802_a_at) / RFU TPSAB1 /// TPSB2 (11721975_s_at) / Fold change /veh TPSAB1 /// TPSB2 (11721975_s_at) / RFU GSTM3 (11746129_a_at) / Fold change /veh GSTM3 (11746129_a_at) / RFU IL23R (11737362_x_at) / Fold change /veh IL23R (11737362_x_at) / RFU TMEM51 (11727254_a_at) / Fold change /veh TMEM51 (11727254_a_at) / RFU PIWIL2 (11732686_x_at) / Fold change /veh PIWIL2 (11732686_x_at) / RFU ORM1 (11744905_x_at) / Fold change /veh ORM1 (11744905_x_at) / RFU CCDC152 (11743942_at) / Fold change /veh CCDC152 (11743942_at) / RFU ECM1 (11717891_a_at) / Fold change /veh ECM1 (11717891_a_at) / RFU IL23R (11748794_a_at) / Fold change /veh IL23R (11748794_a_at) / RFU TNFAIP8L3 (11732012_x_at) / Fold change /veh TNFAIP8L3 (11732012_x_at) / RFU MBOAT4 (11741988_at) / Fold change /veh MBOAT4 (11741988_at) / RFU 11764193_at / Fold change /veh 11764193_at / RFU TMEM53 (11763286_at) / Fold change /veh TMEM53 (11763286_at) / RFU MAGEB2 (11727129_at) / Fold change /veh MAGEB2 (11727129_at) / RFU TMEM200A (11744735_a_at) / Fold change /veh TMEM200A (11744735_a_at) / RFU CCDC152 (11751479_a_at) / Fold change /veh CCDC152 (11751479_a_at) / RFU FAM211A (11726209_a_at) / Fold change /veh FAM211A (11726209_a_at) / RFU RGS16 (11746705_a_at) / Fold change /veh RGS16 (11746705_a_at) / RFU VCAN (11755009_s_at) / Fold change /veh VCAN (11755009_s_at) / RFU RHOB (11743442_s_at) / Fold change /veh RHOB (11743442_s_at) / RFU RGS16 (11720943_a_at) / Fold change /veh RGS16 (11720943_a_at) / RFU RGS16 (11720944_at) / Fold change /veh RGS16 (11720944_at) / RFU, VPS4B / Fold change vs veh, VPS4B / RFU, CREB1 / Fold change vs veh, CREB1 / RFU, DNAJC13 / Fold change vs veh, DNAJC13 / RFU, GNAQ / Fold change vs veh, GNAQ / RFU, CDK5R1 / Fold change vs veh, CDK5R1 / RFU, ZRANB3 / Fold change vs veh, ZRANB3 / RFU, CUL4A / Fold change vs veh, CUL4A / RFU, CCNY / Fold change vs veh, CCNY / RFU, UFL1 / Fold change vs veh, UFL1 / RFU, COG3 / Fold change vs veh, COG3 / RFU, DIAPH2 / Fold change vs veh, DIAPH2 / RFU, SKA2 / Fold change vs veh, SKA2 / RFU, AFF3 / Fold change vs veh, AFF3 / RFU, LMF1 / Fold change vs veh, LMF1 / RFU, IPO11 / Fold change vs veh, IPO11 / RFU, DFFB / Fold change vs veh, DFFB / RFU, FOXP1 / Fold change vs veh, FOXP1 / RFU, CARD8 / Fold change vs veh, CARD8 / RFU, STRN3 / Fold change vs veh, STRN3 / RFU, ADK / Fold change vs veh, ADK / RFU, RASSF2 / Fold change vs veh, RASSF2 / RFU, WIPF1 / Fold change vs veh, WIPF1 / RFU, LARP1B / Fold change vs veh, LARP1B / RFU, RASA1 / Fold change vs veh, RASA1 / RFU, RB1 / Fold change vs veh, RB1 / RFU, PPFIA1 / Fold change vs veh, PPFIA1 / RFU, MAT2A / Fold change vs veh, MAT2A / RFU, CCT5 / Fold change vs veh, CCT5 / RFU, WDR92 / Fold change vs veh, WDR92 / RFU, CUX1 / Fold change vs veh, CUX1 / RFU, TTC7A / Fold change vs veh, TTC7A / RFU, TMEM135 / Fold change vs veh, TMEM135 / RFU, DEPTOR / Fold change vs veh, DEPTOR / RFU, CPM / Fold change vs veh, CPM / RFU, DNAJB6 / Fold change vs veh, DNAJB6 / RFU, CACNA2D3 / Fold change vs veh, CACNA2D3 / RFU, DTX4 / Fold change vs veh, DTX4 / RFU, TFCP2 / Fold change vs veh, TFCP2 / RFU, GMCL1 /// GMCL1P1 / Fold change vs veh, GMCL1 /// GMCL1P1 / RFU, AEBP2 / Fold change vs veh, AEBP2 / RFU, SNHG1 /// SNORD22 /// SNORD25 /// SNORD26 /// SNORD27 /// SNORD28 /// SNORD29 /// SNORD31 / Fold change vs veh, SNHG1 /// SNORD22 /// SNORD25 /// SNORD26 /// SNORD27 /// SNORD28 /// SNORD29 /// SNORD31 / Fold change (Aza/veh), C12orf56 (ProbeSet 11735607_a_at) / Fold change (ACY-1035/veh), C12orf56 (ProbeSet 11735607_a_at) / Fold change (Aza/veh), FGFR1OP (ProbeSet 11751329_s_at) / Fold change (ACY-1035/veh), FGFR1OP (ProbeSet 11751329_s_at) / Fold change (Aza/veh), VPS36 (ProbeSet 11739960_a_at) / Fold change (ACY-1035/veh), VPS36 (ProbeSet 11739960_a_at) / RFU SYPL1 (11715823_x_at) / Fold change /veh SYPL1 (11715823_x_at) / RFU IGFBP7 (11715501_s_at) / Fold change /veh IGFBP7 (11715501_s_at) / RFU REEP3 (11722064_at) / Fold change /veh REEP3 (11722064_at) / RFU IGLL1 (11728026_x_at) / Fold change /veh IGLL1 (11728026_x_at): dose or concentration left out as unconfirmed
Settings: ProbeSet 11753616_s_at; LIST B

SMILES: Nc1ccc(-c2cccs2)cc1NC(=O)c1ccc2c(c1)cc(C1CC1)n2CCN1CCOCC1 [ACY-1035]
- Fold change vs veh, ARL8B: 0.90
